Tests used:
HL-60 [1] = test: Cytotoxicity against human HL60 cells after 24 hrs by MTT assay; assay type: functional, cell-based; conditions: HL-60, 24 h
Lymphocyte = test: Cytotoxicity against human lymphocytes after 24 to 48 hrs by MTT assay; assay type: cell-based
[2] = Inhibition of beta-hematin formation assessed as reduction in acetate buffer-initiated hemozoin formation measured after 48 hrs; set-up: concentration or dose not given beside the values; conditions: concentration not given here
Jurkat E6.1 [3] = test: Cytotoxicity against human Jurkat E6-1 cells after 24 hrs by MTT assay; assay type: functional, cell-based; conditions: Jurkat E6.1, 24 h
[4] = Selectivity index, ratio of IC50 for human lymphocytes to IC50 for human Jurkat E6-1 cells; assay type: toxicity; conditions: human lymphocytes versus Jurkat E6-1 cells, read-out: Ratio IC50
[5] = Selectivity index, ratio of IC50 for human lymphocytes to IC50 for human HL60 cells; assay type: toxicity; conditions: human lymphocytes versus HL60 cells, read-out: Ratio IC50
HL-60 [6] = test: Induction of apoptosis in human HL60 cells assessed as early apoptotic cells at 5 uM after 24 hrs by Annexin-V-FITC/propidium iodide staining based flow cytometric analysis (reference value: 0.36 +/- 0.02 %); assay type: functional
Jurkat E6.1 [7] = test: Induction of apoptosis in human Jurkat E6-1 cells assessed as early apoptotic cells at 5 uM after 24 hrs by Annexin-V-FITC/propidium iodide staining based flow cytometric analysis (reference value: 0.5 +/- 0.07 %); assay type: functional
HL-60 [8] = test: Induction of apoptosis in human HL60 cells assessed as late apoptotic cells at 5 uM after 24 hrs by Annexin-V-FITC/propidium iodide staining based flow cytometric analysis (reference value: 0.85 +/- 0.13 %); assay type: functional
Jurkat E6.1 [9] = test: Induction of apoptosis in human Jurkat E6-1 cells assessed as late apoptotic cells at 5 uM after 24 hrs by Annexin-V-FITC/propidium iodide staining based flow cytometric analysis (reference value: 0.73 +/- 0.14 %); assay type: functional
HL-60 [10] = test: Induction of apoptosis in human HL60 cells assessed as necrotic cells at 5 uM after 24 hrs by Annexin-V-FITC/propidium iodide staining based flow cytometric analysis (reference value: 1.96 +/- 0.33 %); assay type: functional
Jurkat E6.1 [11] = test: Induction of apoptosis in human Jurkat E6-1 cells assessed as necrotic cells at 5 uM after 24 hrs by Annexin-V-FITC/propidium iodide staining based flow cytometric analysis (reference value: 1.26 +/- 0.24 %); assay type: functional
Plasmodium berghei [12] = test: Antimalarial activity against chloroquine-susceptible Plasmodium berghei ANKA infected in Balb-C mouse assessed as parasitemia at 10 mg/kg, ip administered once daily for 4 days measured post last dose by Giemsa staining based method (reference value: 65.8 +/- 4.38%); assay type: functional
Plasmodium berghei [13] = test: Antimalarial activity against chloroquine-susceptible Plasmodium berghei ANKA infected in Balb-C mouse assessed as mean survival days at 10 mg/kg, ip administered once daily for 4 days (reference value: 8.4 +/- 0.15 day); assay type: functional

COC(=O)/C(=C\c1ccc(OC(=O)c2ccccc2)cc1)Sc1ccnc2cc(Cl)ccc12
IC50 (HL-60 [1]): 30.2 µM
IC50 (Lymphocyte): > 100 µM
inhibition [2]: 33.6%
IC50 (Jurkat E6.1 [3]): 35.7 µM

O=[As][As+](=O)[O-] (stereo not drawn) [ARSENIC TRIOXIDE]
IC50 (HL-60 [1]): 4.97 µM
IC50 (Lymphocyte): 15.3 µM
selectivity ratio [4]: 2.09
IC50 (Jurkat E6.1 [3]): 7.32 µM
selectivity ratio [5]: 3.07

COC(=O)/C(=C\c1ccc(OC(=O)c2cc(OC)c(OC)cc2OC)cc1)Sc1ccnc2cc(Cl)ccc12
Activity (HL-60 [6]): 0.61%
Activity (Jurkat E6.1 [7]): 0.85%
IC50 (HL-60 [1]): 6.26 µM
Activity (HL-60 [8]): 4.21%
Activity (Jurkat E6.1 [9]): 3.17%
Activity (HL-60 [10]): 29.5%
IC50 (Lymphocyte): 52.5 µM
inhibition [2]: 39.6%
Activity (Jurkat E6.1 [11]): 21.4%
selectivity ratio [4]: 5.44
IC50 (Jurkat E6.1 [3]): 9.65 µM
selectivity ratio [5]: 8.34

COC(=O)/C(=C\c1ccc(OC(=O)c2cccc(OC)c2)cc1)Sc1ccnc2cc(Cl)ccc12
IC50 (HL-60 [1]): 25.5 µM
Activity (Plasmodium berghei [12]): 1.5%
IC50 (Lymphocyte): > 100 µM
inhibition [2]: 87.1%
MSD (Plasmodium berghei [13]): 27.16 days
IC50 (Jurkat E6.1 [3]): 33.2 µM

COC(=O)/C(=C\c1ccc(OC(=O)c2cc(OC)cc(OC)c2)cc1)Sc1ccnc2cc(Cl)ccc12
IC50 (HL-60 [1]): 19 µM
Activity (Plasmodium berghei [12]): 1.4%
IC50 (Lymphocyte): 84.1 µM
inhibition [2]: 85.6%
selectivity ratio [4]: 2.92
MSD (Plasmodium berghei [13]): 28.5 days
IC50 (Jurkat E6.1 [3]): 28.9 µM
selectivity ratio [5]: 4.42

COC(=O)/C(=C\c1ccc(OC(=O)c2c(OC)cccc2OC)cc1)Sc1ccnc2cc(Cl)ccc12
IC50 (HL-60 [1]): 37.2 µM
Activity (Plasmodium berghei [12]): 2.6%
IC50 (Lymphocyte): > 100 µM
inhibition [2]: 92.7%
MSD (Plasmodium berghei [13]): 23 days
IC50 (Jurkat E6.1 [3]): 37.5 µM

COC(=O)/C(=C\c1ccc(OC(=O)c2cc(OC)c(OC)c(OC)c2)cc1)Sc1ccnc2cc(Cl)ccc12
Activity (HL-60 [6]): 0.75%
Activity (Jurkat E6.1 [7]): 2.41%
IC50 (HL-60 [1]): 4.24 µM
Activity (HL-60 [8]): 11.3%
Activity (Jurkat E6.1 [9]): 10.3%
Activity (HL-60 [10]): 45.8%
IC50 (Lymphocyte): 35.2 µM
inhibition [2]: 2.48%
Activity (Jurkat E6.1 [11]): 35.6%
selectivity ratio [4]: 7.7
IC50 (Jurkat E6.1 [3]): 4.57 µM
selectivity ratio [5]: 8.3

COC(=O)/C(=C\c1ccc(OC(=O)c2cc(OC)cc(OC)c2OC)cc1)Sc1ccnc2cc(Cl)ccc12
IC50 (HL-60 [1]): 10.7 µM
IC50 (Lymphocyte): 74 µM
inhibition [2]: 47.7%
selectivity ratio [4]: 4.74
IC50 (Jurkat E6.1 [3]): 15.6 µM
selectivity ratio [5]: 6.91

COC(=O)/C(=C\c1ccc(OC(=O)c2cc(OCc3ccccc3)c(OCc3ccccc3)c(OCc3ccccc3)c2)cc1)Sc1ccnc2cc(Cl)ccc12
IC50 (HL-60 [1]): > 100 µM
IC50 (Lymphocyte): > 100 µM
inhibition [2]: 23%
IC50 (Jurkat E6.1 [3]): > 100 µM

From ChEMBL document CHEMBL4184243, “Optimization of antimalarial, and anticancer activities of (E)-methyl 2-(7-chloroquinolin-4-ylthio)-3-(4-hydroxyphenyl) acrylate” (Bioorg Med Chem, 2018)
